Consider 24 compounds from ChEMBL document CHEMBL2169819, “Synthesis and biological evaluation of 2-amino-3-(4-chlorobenzoyl)-4-[(4-arylpiperazin-1-yl)methyl]-5-substituted-thiophenes. effect of the 5-modification on allosteric enhancer activity at the A1 adenosine receptor” (J Med Chem, 2012).

SMILES strings stand for the structures. Calls of active or inactive are those of the source. The calls are words filed in the database; no cut-off is given here. Some results are limits rather than exact numbers.

In test [1] the target is T1, Adenosine receptor A1 (Homo sapiens) (UniProt P30542).
T1 sequence (whole entry): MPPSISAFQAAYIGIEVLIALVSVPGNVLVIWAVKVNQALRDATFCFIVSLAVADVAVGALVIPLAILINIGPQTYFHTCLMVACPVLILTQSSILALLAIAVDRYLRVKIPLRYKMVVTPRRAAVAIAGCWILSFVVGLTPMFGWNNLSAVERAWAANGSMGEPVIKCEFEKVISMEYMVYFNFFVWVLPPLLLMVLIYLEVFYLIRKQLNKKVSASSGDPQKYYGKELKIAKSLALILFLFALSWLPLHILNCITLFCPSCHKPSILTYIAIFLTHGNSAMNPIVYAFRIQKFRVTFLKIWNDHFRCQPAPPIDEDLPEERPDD
The test is described as follows: Allosteric enhancing activity at human adenosine A1 receptor expressed in CHO cells assessed as increase in CCPA-induced [3H]DPCPX displacement at 10 uM after 90 mins relative to control. The test is classed as cell-based.

In test [2] the target is T1, Adenosine receptor A1 (Homo sapiens). The test is described as follows: Allosteric enhancing activity at human adenosine A1 receptor expressed in CHO cells assessed as increase in [3H]-2-chloro-N6-cyclopentyladenosine Bmax at 10 uM after 90 mins relative to control. The test is classed as cell-based.
The target in test [3] is T2, Adenosine receptor A3 (Homo sapiens) (UniProt P0DMS8).
T2 sequence (whole entry): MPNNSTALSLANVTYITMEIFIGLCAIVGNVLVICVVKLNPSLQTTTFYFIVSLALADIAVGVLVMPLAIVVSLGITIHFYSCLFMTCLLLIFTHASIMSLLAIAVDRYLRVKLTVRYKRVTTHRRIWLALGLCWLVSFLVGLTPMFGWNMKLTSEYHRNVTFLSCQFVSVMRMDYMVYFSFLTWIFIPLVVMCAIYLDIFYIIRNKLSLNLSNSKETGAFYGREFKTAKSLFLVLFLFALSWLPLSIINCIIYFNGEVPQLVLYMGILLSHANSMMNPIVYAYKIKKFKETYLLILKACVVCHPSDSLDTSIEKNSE
The test is described as follows: Displacement of [3H]MRE-3008-F20 from human adenosine A3 receptor expressed in CHO cells at 10 uM after 120 mins by scintillation counting. The test is classed as cell-based.

Test [4] has as its target Adenosine receptor A2a (Homo sapiens) (UniProt P29274). The test is described as follows: Displacement of [3H]ZM241385 from human adenosine A2A receptor expressed in CHO cells at 10 uM after 120 mins by scintillation counting. The test is classed as cell-based. On the technique in general: Displacement assays read how much labelled ligand stays bound in the presence of the test substance.

Test [5] has as its target T1, Adenosine receptor A1 (Homo sapiens). The test is described as follows: Displacement of [3H]DPCPX from human adenosine A1 receptor expressed in CHO cells at 10 uM after 120 mins by scintillation counting. The test is classed as cell-based.
The target is the same in test [6]. The test is described as follows: Allosteric enhancing activity at human adenosine A1 receptor expressed in CHO cells assessed as inhibition of forskolin-stimulated cAMP accumulation at 100 nM incubated for 10 mins prior to forskolin-stimulation measured after 5 mins by competition protein binding assay in presence of 2-chloro-N6-cyclopentyladenosine. The test is classed as functional, cell-based. Background: Changes in cAMP serve as a functional read-out for many G protein-coupled receptors.

The target is the same in test [7]. The test is described as follows: Allosteric enhancing activity at human adenosine A1 receptor expressed in CHO cells assessed as inhibition of forskolin-stimulated cAMP accumulation at 10 uM incubated for 10 mins prior to forskolin-stimulation measured after 5 mins by competition protein binding assay. The test is classed as functional, cell-based.

Adenosine receptor A2a (Homo sapiens), sequence (P29274 whole entry): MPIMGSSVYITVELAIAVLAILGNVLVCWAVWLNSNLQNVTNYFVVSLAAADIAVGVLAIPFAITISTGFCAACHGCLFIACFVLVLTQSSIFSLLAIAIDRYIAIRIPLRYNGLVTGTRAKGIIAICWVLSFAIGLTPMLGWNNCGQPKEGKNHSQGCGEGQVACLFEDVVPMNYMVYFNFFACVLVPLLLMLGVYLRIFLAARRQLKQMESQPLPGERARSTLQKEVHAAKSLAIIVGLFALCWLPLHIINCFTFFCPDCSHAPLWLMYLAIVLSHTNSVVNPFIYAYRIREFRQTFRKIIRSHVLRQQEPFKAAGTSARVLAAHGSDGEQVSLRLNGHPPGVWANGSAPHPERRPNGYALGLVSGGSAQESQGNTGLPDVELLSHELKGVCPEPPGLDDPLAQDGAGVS

In general, inhibition refers to the change of the read-out against control, counted positive when it falls. In the case of `Cc1sc(N)c(C(=O)c2ccc(Cl)cc2)c1CN1CCN(c2ccc(Cl)c(Cl)c2)CC1`, the Ratio Ki in test [1] was 5.4. Besides, the fold change (FC) in test [2] amounted to 5.9. Moreover, the inhibition in test [3] was less than 12%; in test [4], less than 12%; in test [5], less than 12%; in test [6], 51%; in test [7], 56%.
For the compound `Nc1sc(-c2ccccc2)c(CN2CCN(c3ccc(F)cc3)CC2)c1C(=O)c1ccc(Cl)cc1`, the Ratio Ki in test [1] was determined as 9.4. The fold change (FC) in test [2] was 11.1. Moreover, the inhibition in test [3] was less than 12%; in test [4], less than 12%; in test [5], less than 12%; in test [6], 71%; in test [7] it was 77%.
On to `Nc1sc(-c2ccc(Cl)cc2)c(CN2CCN(Cc3ccccc3)CC2)c1C(=O)c1ccc(Cl)cc1`, for which, in test [1], the Ratio Ki is 6.8. Further, in test [2], the fold change (FC) came out at 7.7. Moreover, the inhibition in test [3] was less than 12%; in test [4] it was less than 12%; in test [5] it was less than 12%; in test [6] it was 63%; in test [7], 65%.
With `Nc1sc(-c2ccc(F)cc2)c(CN2CCN(c3ccccc3)CC2)c1C(=O)c1ccc(Cl)cc1`, in test [1], the Ratio Ki came to 13.3. The fold change (FC) in test [2] was determined as 14.1. For the same compound, the inhibition was less than 12% in test [3]; less than 12% in test [4]; less than 12% in test [5]; 81% in test [6]; 89% in test [7].
With `Nc1sc(Br)c(CN2CCN(c3ccccc3)CC2)c1C(=O)c1ccc(Cl)cc1`, in test [1], the Ratio Ki came to 4.5. In test [2], the fold change (FC) stood at 4.7. The inhibition in test [3] was less than 12%; in test [4] it was less than 12%; in test [5], less than 12%; in test [6] it was 43%; in test [7], 48%.
For the compound `Nc1sc(-c2ccc(Cl)cc2)c(CN2CCN(c3ccccc3C(F)(F)F)CC2)c1C(=O)c1ccc(Cl)cc1`, the Ratio Ki in test [1] amounted to 7.2. In addition, the fold change (FC) in test [2] is 8.1. The inhibition in test [3] was less than 12%; in test [4], less than 12%; in test [5], less than 12%; in test [6], 62%; in test [7], 66%.
As to `Nc1sc(-c2ccc(Cl)cc2)c(CN2CCN(c3ccc(C(F)(F)F)cc3)CC2)c1C(=O)c1ccc(Cl)cc1`, the Ratio Ki in test [1] was 10.5. Moreover, the fold change (FC) in test [2] was determined as 11.2. For the same compound, the inhibition in test [3] was less than 12%; in test [4], less than 12%; in test [5], less than 12%; in test [6] it was 75%; in test [7] it was 83%.
For the compound `Nc1sc(-c2ccccc2)c(CN2CCN(c3ccc(OC(F)(F)F)cc3)CC2)c1C(=O)c1ccc(Cl)cc1`, the Ratio Ki in test [1] turned out to be 8.4. For the same compound, the fold change (FC) in test [2] is 9.4. Moreover, the inhibition is less than 12% in test [3]; less than 12% in test [4]; less than 12% in test [5]; 69% in test [6]; 67% in test [7].
`Nc1sc(-c2ccc(Cl)cc2)c(CN2CCN(c3ccc(Cl)c(Cl)c3)CC2)c1C(=O)c1ccc(Cl)cc1`: the Ratio Ki in test [1] turned out to be 7.7. Besides, the fold change (FC) in test [2] worked out at 8.3. Besides, the inhibition in test [3] was less than 12%; in test [4] it was less than 12%; in test [5] it was less than 12%; in test [6] it was 67%; in test [7], 69%.
Turning to `Nc1scc(CN2CCN(c3ccc(Cl)cc3)CC2)c1C(=O)c1ccc(Cl)cc1`, in test [1], the Ratio Ki worked out at 5.6. In addition, the fold change (FC) in test [2] stood at 7.
For `Nc1sc(-c2ccc(F)cc2)c(CN2CCN(c3ccc(F)cc3)CC2)c1C(=O)c1ccc(Cl)cc1`, the Ratio Ki in test [1] was 9.5. Further, in test [2], the fold change (FC) came out at 11.7. Also, the inhibition in test [3] is less than 12%; in test [4], less than 12%; in test [5], less than 12%; in test [6], 77%; in test [7] it was 82%.
In the case of `Cc1sc(N)c(C(=O)c2ccc(Cl)cc2)c1CN1CCN(c2ccc(Br)cc2)CC1`, the Ratio Ki in test [1] is 4.5. Further, the fold change (FC) in test [2] was found to be 4.9. Besides, the inhibition was less than 12% in test [3]; less than 12% in test [4]; less than 12% in test [5]; 46% in test [6]; 49% in test [7].
Take `Nc1sc(-c2ccc(Cl)cc2)c(CN2CCN(c3ccc(Cl)c(C(F)(F)F)c3)CC2)c1C(=O)c1ccc(Cl)cc1`: the Ratio Ki in test [1] is 8. Also, the fold change (FC) in test [2] amounted to 10.1. In addition, the inhibition in test [3] was less than 12%; in test [4] it was less than 12%; in test [5], less than 12%; in test [6], 70%; in test [7] it was 76%.
On to `Cc1sc(N)c(C(=O)c2ccc(Cl)cc2)c1CN1CCN(c2ccc(Cl)cc2)CC1`, for which the Ratio Ki in test [1] came out at 4.2. Also, the fold change (FC) in test [2] turned out to be 4.7. The inhibition in test [3] is less than 12%; in test [4] it was less than 12%; in test [5] it was less than 12%; in test [6] it was 40%; in test [7], 44%.
For the compound `Nc1sc(-c2ccccc2)c(CN2CCN(c3ccc(Cl)cc3)CC2)c1C(=O)c1ccc(Cl)cc1`, the Ratio Ki in test [1] came to 7.9. In test [2], the fold change (FC) came to 9.7. Besides, the inhibition in test [3] is less than 12%; in test [4], less than 12%; in test [5], less than 12%; in test [6], 67%; in test [7], 68%.
Turning to `Nc1sc(-c2ccc(Cl)cc2)c(CN2CCN(c3ccc(Cl)cc3)CC2)c1C(=O)c1ccc(Cl)cc1`, the Ratio Ki in test [1] came to 8.7. The fold change (FC) in test [2] was 11.4. Besides, the inhibition was less than 12% in test [3]; less than 12% in test [4]; less than 12% in test [5]; 71% in test [6]; 85% in test [7].
Regarding `CCc1sc(N)c(C(=O)c2ccc(Cl)cc2)c1CN1CCN(c2ccc(Cl)cc2)CC1`, the Ratio Ki in test [1] was 6. Further, the fold change (FC) in test [2] came to 6.5. Further, the inhibition was less than 12% in test [3]; less than 12% in test [4]; less than 12% in test [5]; 53% in test [6]; 60% in test [7].
For `Cc1sc(N)c(C(=O)c2ccc(Cl)cc2)c1CN1CCN(c2ccccc2)CC1`, in test [1], the Ratio Ki was determined as 6.4. Further, the fold change (FC) in test [2] was 6.8. Besides, the inhibition in test [3] was less than 12%; in test [4], less than 12%; in test [5] it was less than 12%; in test [6], 57%; in test [7] it was 59%.
With `Cc1sc(N)c(C(=O)c2ccc(Cl)cc2)c1CN1CCN(c2cccc(Cl)c2)CC1`, the Ratio Ki in test [1] came to 6.1. For the same compound, the fold change (FC) in test [2] turned out to be 6.5. For the same compound, the inhibition is less than 12% in test [3]; less than 12% in test [4]; less than 12% in test [5]; 54% in test [6]; 58% in test [7].
For `Cc1sc(N)c(C(=O)c2ccc(Cl)cc2)c1CN1CCN(c2ccc([N+](=O)[O-])cc2)CC1`, in test [1], the Ratio Ki was 1.1. For the same compound, the fold change (FC) in test [2] is 1.3. Also, the inhibition in test [3] is less than 12%; in test [4], less than 12%; in test [5] it was less than 12%; in test [6], 13%; in test [7], 9%.
In the case of `Cc1sc(N)c(C(=O)c2cccc(C(F)(F)F)c2)c1C`, the Ratio Ki in test [1] is 1.6. Further, the fold change (FC) in test [2] was 1.3. The inhibition entry in test [4] and in test [5] was “inactive” throughout. In addition, in test [6], the inhibition was 22%.
Consider `CCc1sc(N)c(C(=O)c2ccc(Cl)cc2)c1CN1CCN(c2ccc(F)cc2)CC1`, for which the Ratio Ki in test [1] stood at 3.8. The fold change (FC) in test [2] came out at 6.7. The inhibition in test [3] is less than 12%; in test [4], less than 12%; in test [5], less than 12%; in test [6], 55%; in test [7], 63%.
Turning to `Nc1scc(CN2CCN(c3ccc(OC(F)(F)F)cc3)CC2)c1C(=O)c1ccc(Cl)cc1`, in test [1], the Ratio Ki is 5.3. For the same compound, the fold change (FC) in test [2] amounted to 6.8.
The like results for `Nc1scc(CN2CCN(c3ccc(C(F)(F)F)cc3)CC2)c1C(=O)c1ccc(Cl)cc1` were, in that order, 6.3 and 7.7.
